{"source": "patent US4760089A", "about": "“Irreversible dopamine-β-hydroxylase inhibitors” (SmithKline Beckman Corporation, priority 1985, dated 1988)", "key": {"[1]": {"settings": "Teresawa et al., Japan. Cir. J. 35, 339 (1971); cited from earlier work"}, "[2]": {"target": "T1, dopamine-β-hydroxylase (DBH) (Bos taurus, UniProt P15101)", "T1 sequence (P15101 1-610)": "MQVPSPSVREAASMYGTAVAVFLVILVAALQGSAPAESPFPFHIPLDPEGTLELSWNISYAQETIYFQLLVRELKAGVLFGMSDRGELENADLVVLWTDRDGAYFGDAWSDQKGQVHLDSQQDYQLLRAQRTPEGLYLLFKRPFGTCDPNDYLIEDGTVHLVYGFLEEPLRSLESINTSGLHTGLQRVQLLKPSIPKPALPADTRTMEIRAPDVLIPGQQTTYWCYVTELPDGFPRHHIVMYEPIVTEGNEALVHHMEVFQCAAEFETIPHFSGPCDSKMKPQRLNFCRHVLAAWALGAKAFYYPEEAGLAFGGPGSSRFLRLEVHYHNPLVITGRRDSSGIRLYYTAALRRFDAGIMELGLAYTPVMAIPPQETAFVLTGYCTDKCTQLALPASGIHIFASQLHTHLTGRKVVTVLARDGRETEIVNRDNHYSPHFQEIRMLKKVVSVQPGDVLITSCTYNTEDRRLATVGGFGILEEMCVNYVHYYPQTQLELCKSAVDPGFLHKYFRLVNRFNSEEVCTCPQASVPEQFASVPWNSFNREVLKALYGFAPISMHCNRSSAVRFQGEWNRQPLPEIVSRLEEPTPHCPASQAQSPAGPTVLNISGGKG", "assay": "Dialysis of enzyme-inhibitor complexes to test reversibility of DBH inhibition", "type": "biochemical", "settings": "for Amount of Product Formed Pre-Dialysis: approx. 3 hour incubation with DBH; for Amount of Product Formed Post-Dialysis: dialyzed overnight, pH 5.5 acetate buffer; for activity at 1000 µM: tyramine alone = 100%", "description": "(§1) Presently invented also are methods of producing DBH inhibition in mammals, including humans, by administering an effective amount of 2-cyano-2-phenethylamine or a 2-cyano-2-(hydroxyphenyl)ethylamine compound. […] DBH activity was assayed by a standard procedure for measuring the conversion of tyramine to octopamine in the presence of DBH. J. J. Pisano, et al., Biochim. Biophy. Acta, 43, 566-68 (1960). Octopamine was assayed following sodium periodate oxidation to p-hydroxybenzaldehyde by measuring spectrophotometric absorbance at 330 nm.\nDialysis of enzyme-inhibitor complexes was selected as the approach for testing the reversibility of the inhibition produced by these compounds. A known, reversible DBH inhibitor, fusaric acid, was utilized as a reference standard. Following approximate 3 hour incubation of DBH with one of the inhibitors, the rate of enzymatic conversion of tyramine to octopamine was measured by the standard procedure used in the enzyme kinetic analyses. Thereafter, the enzyme previously incubated with inhibitor was placed in a standard dialysis bag and dialyzed overnight against four changes of pH 5.5 acetate buffer. Following dialysis, the rate of enzymatic conversion of tyramine to octopamine again was measured."}, "[3]": {"tested_on": "peripheral dopamine (DA) and norepinephrine (NE) levels", "assay": "In vivo effect on peripheral dopamine and norepinephrine levels", "design": "species or system spontaneously hypertensive rats", "settings": "twice; for DA / NE: per gram of tissue, about 2 hours after second dose", "description": "One of the 2-cyano-2-phenethylamine compounds also was tested for its effect in vivo on peripheral dopamine (DA) and norepinephrine (NE) levels substantially by the procedure of DaPrada and Zurcher, Life Sciences, 19, 1161, (1976). Groups of five spontaneously hypertensive rats were dosed orally, twice, the second dose approximately 18 hours after the first, and were sacrificed about 2 hours after the second dose."}, "DBH": {"tested_on": "DBH", "settings": "Runti et al., Il Farmaco Ed. Sci. 36, 260 (1980); cited from earlier work"}, "[4]": {"tested_on": "spontaneously hypertensive rats", "assay": "Mean arterial blood pressure in spontaneously hypertensive rats", "type": "in vivo", "settings": "100 mg/kg intraperitoneally", "description": "Further, spontaneously hypertensive rats were dosed with a suspension or solution of 2-cyano-2-phenethylamine hydrochloride at a dose of 100 mg/kg intraperitoneally, and mean arterial blood pressure was monitored for 260 minutes using indwelling cannulae positioned in the tail arteries. Approximate thirty percent reductions in blood pressure were observed thirty to forty minutes following administration of this compound. At 260 minutes after administration of this compound, blood pressure remained reduced by approximately twenty percent when compared to vehicle-treated controls."}, "[5]": {"target": "T1, dopamine-β-hydroxylase (DBH)", "assay": "DBH enzyme inhibition kinetics, conversion of tyramine to octopamine", "type": "biochemical", "settings": "several inhibitor concentrations", "description": "as §1\nFurther, the changing apparent rate constant and the unchanging maxiumum reaction rate indicate that the compounds useful in the presently invented method initially are competitive blockers of substrate-enzyme interactions."}, "[6]": {"settings": "Tyramine 10^-2 M and Fusaric Acid 10^-4 M"}, "[7]": {"settings": "Tyramine 10^-2 M and inhibitor 10^-3 M"}}, "note": "Structures can show the parent of a compound that is named as a salt. Where two headings read alike, the source gives them in different places.", "data": [{"molecule": "CCCCc1ccc(C(=O)O)nc1", "note": "[Fusaric Acid, reference compound]", "values": [{"measurement": "toxic effect", "setting": "[1]", "value": "hepatotoxic"}, {"measurement": "activity at 100 µM", "setting": "[2]; 3 h, read-out: DBH Activity Pre-Dialysis", "value": 2, "unit": "%"}, {"measurement": "Amount of Product Formed Pre-Dialysis", "setting": "[2]; [6]", "value": 4.0, "unit": "nM"}, {"measurement": "Amount of Product Formed Post-Dialysis", "setting": "[2]; [6]", "value": 169.0, "unit": "nM"}, {"measurement": "activity at 100 µM", "setting": "[2]; read-out: DBH Activity Post-Dialysis", "value": 89.2, "unit": "%"}, {"measurement": "DA/NE Ratio", "setting": "[3]; Experiment 1, 50 mg/kg orally", "value": "0.0994 ± 0.007"}, {"measurement": "DA", "setting": "[3]; Experiment 1, 50 mg/kg orally", "value": 0.819, "unit": "µg/g"}, {"measurement": "NE", "setting": "[3]; Experiment 1, 50 mg/kg orally", "value": 8.31, "unit": "µg/g"}, {"measurement": "DA/NE Ratio", "setting": "[3]; Experiment 2, 50 mg/kg orally", "value": "0.112 ± 0.0055"}, {"measurement": "DA", "setting": "[3]; Experiment 2, 50 mg/kg orally", "value": 0.615, "unit": "µg/g"}, {"measurement": "NE", "setting": "[3]; Experiment 2, 50 mg/kg orally", "value": 5.82, "unit": "µg/g"}]}, {"molecule": "phenylpicolinic acid", "values": [{"measurement": "DBH inhibitory activity relative to fusaric acid", "setting": "DBH", "value": "twice the inhibitory activity of fusaric acid"}]}, {"molecule": "N#CC(CN)c1ccccc1", "note": "(stereo not shown) [2-cyano-2-phenethylamine hydrochloride]", "values": [{"measurement": "reduction in mean arterial blood pressure compared to vehicle-treated controls", "setting": "[4]; at 260 minutes after administration", "value": "approximately twenty"}, {"measurement": "reduction in mean arterial blood pressure", "setting": "[4]; thirty to forty minutes following administration", "value": "thirty"}, {"measurement": "activity at 1000 µM", "setting": "[2]; 3 h, Tyramine 10^-2 M and inhibitor 10^-3 M, read-out: DBH Activity Pre-Dialysis", "value": 8, "unit": "%"}, {"measurement": "Amount of Product Formed Pre-Dialysis", "setting": "[2]; [7]", "value": 15.7, "unit": "nM"}, {"measurement": "Amount of Product Formed Post-Dialysis", "setting": "[2]; [7]", "value": 10.5, "unit": "nM"}, {"measurement": "activity at 1000 µM", "setting": "[2]; Tyramine 10^-2 M and inhibitor 10^-3 M, read-out: DBH Activity Post-Dialysis", "value": 5.5, "unit": "%"}, {"measurement": "DA/NE Ratio", "setting": "[3]; Experiment 1, 100 mg/kg orally", "value": "0.0716 ± 0.004"}, {"measurement": "DA", "setting": "[3]; Experiment 1, 100 mg/kg orally", "value": 0.571, "unit": "µg/g"}, {"measurement": "NE", "setting": "[3]; Experiment 1, 100 mg/kg orally", "value": 7.96, "unit": "µg/g"}, {"measurement": "DA/NE Ratio", "setting": "[3]; Experiment 2, 100 mg/kg orally", "value": "0.0628 ± 0.0013"}, {"measurement": "DA", "setting": "[3]; Experiment 2, 100 mg/kg orally", "value": 0.408, "unit": "µg/g"}, {"measurement": "NE", "setting": "[3]; Experiment 2, 100 mg/kg orally", "value": 6.47, "unit": "µg/g"}, {"measurement": "DBH activity versus inhibitor concentration (FIG. 1, double-reciprocal plot)", "setting": "[5]", "value": "reductions in DBH activity were related directly to increasing 2-cyano-2-phenethylamine hydrochloride concentrations"}]}]}
